The test system of one series is Human Hepatocyte. The experiment in a line: Metabolic stability in human hepatocytes. The class given is in vitro ADME. The settings on record: human cryopreserved hepatocytes, 1 μM. The procedure: (§1) The aim of this assay is to determine the metabolic stability of the compound in hepatocytes (cryopreserved) of different species. Low hepatocyte stability may result in the formation of unwanted metabolites, high clearance, and therefore is not desirable.
(§2) A 10 mM stock solution of test compound in DMSO was first diluted in DMSO to 3 mM, and then in modified Krebs-Henseleit buffer (Sigma, K3753) to 5 μM. This compound dilution was added to a suspension of pooled cryopreserved hepatocytes (BioreclamationIVT) at 37° C. under gentle shaking.
(§3) Final reaction conditions were: 1 μM of test compound, 0.03% DMSO, 0.5 million viable hepatocytes/mL, and 75 μL incubation volume.
(§4) Testosterone (1 μM) and 7-hydroxycoumarin (1 μM) were used, respectively as phase I and phase II metabolic reaction controls.
(§5) After 0, 10, 20, 45, 90, 120 and 180 min of incubation, the reaction was terminated with 225 μL of MeCN:MeOH (2:1) containing 100 ng/mL of diclofenac as analytical internal standard. Samples were mixed, centrifuged and the supernatant analyzed by LC-MS/MS.
(§6) The instrument responses (ratios of test compound and internal standard peak areas) were referenced to the zero time point samples (considered as 100%) in order to determine the percentage of compound remaining.
(§7) Plots of percentage compound remaining were used to determine the intrinsic clearance in the hepatocyte incubations using the following equations:
(§8) Scaled Clint [L/h/kg]=Clint [μL/min/10^6 cells]*#(10) cells/g liver*60*(1/10^6) Scaled Clint unbound [L/h/kg]=Clint [L/h/kg]/Fu,inc where: fu,inc equals hepatocyte binding, derived from microsomal binding (fu,mic) by following equation: […]

For another series, the target named is T1, human IRAK-4 (Homo sapiens, UniProt Q9NWZ3).
T1 construct: purchased Carna Biosciences 09 145
T1 sequence (Q9NWZ3 1-460): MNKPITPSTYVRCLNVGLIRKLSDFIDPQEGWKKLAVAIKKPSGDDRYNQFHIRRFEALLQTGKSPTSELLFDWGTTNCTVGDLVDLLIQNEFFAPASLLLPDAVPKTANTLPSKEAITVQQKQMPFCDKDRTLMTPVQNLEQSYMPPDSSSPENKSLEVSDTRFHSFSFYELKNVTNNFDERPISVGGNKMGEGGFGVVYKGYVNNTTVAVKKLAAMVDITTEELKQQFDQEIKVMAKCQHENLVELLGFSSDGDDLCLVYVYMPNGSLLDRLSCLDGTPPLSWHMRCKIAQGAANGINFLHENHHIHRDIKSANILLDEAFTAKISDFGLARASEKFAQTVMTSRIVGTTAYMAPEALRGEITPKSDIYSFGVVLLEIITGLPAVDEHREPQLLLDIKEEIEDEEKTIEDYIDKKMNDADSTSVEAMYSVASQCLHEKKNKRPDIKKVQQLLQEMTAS
Put plainly: Phosphorylation IC50 determination for human IRAK-4 (ADP-Glo Kinase Assay). The settings on record: human IRAK-4, substrate RIP140, Km ATP; read-out: IRAK4 ADPglo biochemical assay IC50. Here is the method: The phosphorylation of the substrate RIP140 (SEQ ID1) by IRAK4 at Km ATP was detected with the ADP-Glo Kinase Assay (Promega, Cat #V9103), a luminescent kinase assay which measures the ADP formed from a kinase reaction. (Zegzouti et al. 2009) In a second step the kinase reaction was terminated and all the remaining ATP was depleted. In a final step the ADP was converted into ATP and this newly synthesized ATP was measured by using a luciferase/luciferin reaction with a luminescent reader. The luminescent signal positively correlated with kinase activity, in particular kinase inhibition giving a decrease of the luminescent signal.
For the semi-automated assay, the positive control (100% inhibition) was prepared by diluting 10 mM staurosporine stock mixture (20 μL) in water (3.8 mL) and DMSO (180 μL), thus resulting in a […] staurosporine solution at 1% DMSO (final concentration after further dilution in the kinase reaction).
For the automated assay, no pre-dilution of the 10 mM staurosporine stock was made. 10 mM staurosporine was spotted directly in the assay plate using acoustic dispensing and complemented with DMSO to result in a similar final concentration as mentioned above.
For the semi-automated assay, the negative control (0% inhibition) was prepared by mixing water (3.8 mL) and DMSO (200 μL) resulting in a final concentration of 1% DMSO after further dilution in the kinase reaction. For the automated assay no pre-dilution of DMSO was done. 100% DMSO was spotted directly on the assay plate.
The assay buffer solution was prepared at a concentration corresponding to 5 fold the final (most diluted) assay concentration by mixing a solution of 125 mM TRIS pH 7.5+0.05% Triton X-100+2.5 mM EGTA (5.27 mL) with 1M mgCl2 (72 μL), 1M DTT (57.6 μL), and 200 mM MnCl2 (360 μL).
For example, for the semi-automated method, the enzyme-substrate mixture was prepared by mixing water (3999 μL), assay buffer solution (1380 μL), 1 mM RIP140 (138 μL—SEQ ID1), and 200 ng/mL IRAK 4 (3.45 μL Carna Biosciences, 09 145).
For semi-automated method, the ATP mixture was prepared at a concentration corresponding to 2.5 fold the final (most diluted) assay concentration of the semi-automated method and 1.5 fold the final (most diluted) assay concentration of the automated method. For example, for the semi-automated method, the ATP mixture was prepared by mixing water (4126 μL), assay buffer solution (1380 μL), and 10 mM ATP (13.80 μL).
The assay are performed either in a semi-automated or fully automated manner. The assay volume and the incubation time of the ADP detection were different accordingly the method used.
The compounds were prepared as a serial dilution of 10 point dose responses with 1/5 dilution steps in 100% DMSO starting from 2 mM highest concentration, diluted 1/20 in water. 1 μL was transferred dry to the assay plates.
On each assay plate 32 wells of each control (positive & negative) were added, followed by 2 μL enzyme-substrate mixture.
The reaction was started by adding 2 μL diluted ATP (final concentration Km ATP) on the assay plates. Plates were centrifuged for a few seconds at 1000 rpm followed by an incubation at r.t. for 120 min.
The reactions were stopped and the unconsumed ATP was depleted by adding 5 μL ADP-glo Reagent (Promega, Cat #V9103) to the reaction. The plates were quickly centrifuged at 1000 rpm and incubated at r.t. for 40 min corresponding to full ATP depletion.
The ADP was converted back to ATP and luciferase and luciferin were introduced to detect ATP by adding 10 μL kinase detection reagent (Promega, Cat #V9103) to the reaction. The plates were centrifuged for a few seconds at 1000 rpm and incubated at r.t. for a further 30 min.
Luminescent read out was performed on an Envision luminescent reader (Perkin Elmer).
For the automated assay, the compounds were prepared as a serial dilution of 10 point dose responses with 1/5 dilution steps in 100% DMSO starting from 2 mM highest concentration. […]

In a further series the test system is Mouse Hepatocyte. Put plainly: Metabolic stability in mouse hepatocytes. The series is classed as in vitro ADME. The settings on record: mouse cryopreserved hepatocytes, 1 μM. The procedure: as §1, §2, §3, §4, §5, §6, §7, §8

Broadly, the IC50 is the concentration that inhibits the measured activity by half.

`CC(F)(F)c1cccc(C(=O)Nc2cn3cc(C4COCCO4)nc3cc2C(N)=O)n1` (stereo not drawn) [Compound 13, 6-(6-(1,1-difluoroethyl)picolinamido)-2-(1,4-dioxan-2-yl)imidazo[1,2-a]pyridine-7-carboxamide]: in the series with Human Hepatocyte, the “Human Hepatocyte stability (Perc. remaining at 90 min)” value worked out at 93.85 Perc. The IC50 on human IRAK-4 lay in the range of 0.1 to 5 nM. Moreover, the “Mouse Hepatocyte stability (Perc. remaining at 90 min)” value in the series on Mouse Hepatocyte came to 72.8 Perc.
For the compound `COc1cc2nc(C3COCCO3)cn2cc1NC(=O)c1cccc(C(F)(F)F)n1` (stereo not drawn) [Compound 4, N-[2-(1,4-dioxan-2-yl)-7-methoxy-imidazo[1,2-a]pyridin-6-yl]-6-(trifluoromethyl)pyridine-2-carboxamide], in the series with Human Hepatocyte, the “Human Hepatocyte stability (Perc. remaining at 90 min)” value turned out to be 85.9 Perc. Besides, the 50% inhibitory concentration (IC50) on human IRAK-4 lay in the range of 0.1 to 5 nM. Moreover, the “Mouse Hepatocyte stability (Perc. remaining at 90 min)” value with Mouse Hepatocyte is reported as 103.55 Perc.
For `CNC(=O)c1cc2nc(C3COCCO3)cn2cc1NC(=O)c1cccc(C(C)(F)F)n1` (stereo not drawn) [Compound 14, 6-(6-(1,1-difluoroethyl)picolinamido)-2-(1,4-dioxan-2-yl)-N-methylimidazo[1,2-a]pyridine-7-carboxamide], the “Human Hepatocyte stability (Perc. remaining at 90 min)” value in the series with Human Hepatocyte is recorded as 100.05 Perc. Moreover, the IC50 at human IRAK-4 fell in the range of 0.1 to 5 nM. Besides, the “Mouse Hepatocyte stability (Perc. remaining at 90 min)” value in the series on Mouse Hepatocyte is reported as 67.65 Perc.

Source of the values: patent US20220296573A1, “NOVEL COMPOUNDS AND PHARMACEUTICAL COMPOSITIONS THEREOF FOR THE TREATMENT OF INFLAMMATORY DISORDERS” (Galapagos NV, priority 2019, published 2022).
